From patent US5451605A, “1,2-epoxycyclohexanyl and bicyclic aromatic substituted ethyne compounds having retinoid-like biological activity” (Allergan, Inc., priority 1993, dated 1995)

How the values were obtained:
[1] = tested on: ornithine decarboxylase (ODC); assay: inhibition of TPA induction of ornithine decarboxylase (ODC); format: in vivo
Text: The retinoid-like activity of these compounds is confirmed through the classic measure of retinoic acid activity involving the effects of retinoic acid on ornithine decarboxylase. The original work on the correlation between retinoic acid and decrease in cell proliferation was done by Verma & Boutwell, Cancer Research, 1977, 37,2196-2201. That reference discloses that ornithine decarboxylase (ODC) activity increased precedent to polyamine biosynthesis. It has been established elsewhere that increases in polyamine synthesis can be correlated or associated with cellular proliferation. Thus, if ODC activity could be inhibited, cell hyperproliferation could be modulated. Although all causes for ODC activity increases are unknown, it is known that 12-0-tetradecanoylphorbol-13-acetate (TPA) induces ODC activity.

[2] = tested on: ornithine decarboxylase (ODC); conditions: general statement, TPA-induced ODC; cited from earlier work

## CC1(C)CCCC2(C)OC12C#Cc1ccc2cc(C(=O)O)ccc2c1 (racemic) [Compound 1, 6-[2-(1,2-epoxy-2,6,6-trimethyl-cyclohexan-1-yl)-ethynyl]-2-naphthoic acid]
[1]
  IC80: 30.5 nM

## CC1=C(/C=C/C(C)=C/C=C/C(C)=C/C(=O)O)C(C)(C)CCC1 [Retinoic acid]
[2]
  inhibition of TPA induction of ODC activity: inhibits this induction of ODC activity by TPA
